{
  "source": "patent US12245999B2",
  "about": "“Valproic acid for the treatment or prevention of pathological conditions associated with excess fibrin deposition and/or thrombus formation” (Cereno Scientific AB, priority 2014, dated 2025)",
  "key": {"PAI-1 [1]": {"system": "PAI-1", "assay": "In vivo model in mouse: plasma PAI-1", "conditions": "in vivo model in mouse (unpublished data)"}, "PAI-1 [2]": {"system": "PAI-1", "conditions": "in vivo model in pig (Svennerholm et al., PLoS One 2014); cited from earlier work"}, "PAI-1 [3]": {"system": "PAI-1", "assay": "Intermediate endpoint study in patients with TIA/minor stroke: plasma PAI-1 (ELISA)", "format": "in vivo, human", "conditions": "20 patients with TIA/minor stroke, 400 mg enteric-coated tablet once daily at 11 pm for 2 weeks", "experimental": "An intermediate endpoint proof-of-concept study is performed in patients with TIA/minor stroke investigated before and after treatment with Valproic acid. Valproic acid is administrated as an enteric-coated tablet with delayed absorption.\n(§1) The study comprises 20 patients with TIA/minor stroke. Patients are investigated before and after oral treatment with 400 mg valproic acid once time daily at 11 pm for 2 weeks. Plasma PAI-1 levels and plasma concentrations of valproic acid is followed daily during the study period at the following time-points: 3 am, 6 am, 10 am, 16 pm, 22 pm PAI-1 levels are measured by commercially available ELISA-kits (Coaliza PAI-1, Chromogenix AB) and the plasma concentration of valproic acid an metabolites thereof is analyzed according to clinical routine at the Sahlgrenska University laboratory, Gothenburg, Sweden."}, "PAI-1 [4]": {"system": "PAI-1", "assay": "In vitro cultured endothelial cells: PAI-1 mRNA / production after VPA treatment", "format": "cell-based"}, "[5]": {"assay": "Clinical outcome study in high-risk patients: recurrent atherothrombotic events", "format": "in vivo, human", "conditions": "400 mg once daily at 11 pm, long-term, expected", "experimental": "A clinical outcome study is performed in high-risk patients who have experienced a recent major atherothrombotic cardiovascular event (myocardial infarction or TIA/ischemic stroke) to investigate the preventive effect of valproic acid treatment on the risk for recurrent events. The annual risk for a recurrent atherothrombotic event in the investigated population is estimated to approximately 7%. Patients are randomized in a parallel study design to receive double-blind oral treatment with 400 mg valproic acid (as in Example 2) or placebo once time daily at 11 pm, in addition to optimal conventional treatment. The event rate is monitored by Kaplan-Meyer statistics. The primary efficacy endpoint is the composite measure of either mortality, or non-fatal myocardial infarction or ischemic stroke. The study is event-driven to a total of 180 events."}, "PAI-1 [6]": {"system": "PAI-1", "assay": "Proof-of-concept cross-over study in patients with a history of myocardial infarction: plasma PAI-1 before and after valproic acid", "format": "in vivo, human", "conditions": "midmorning, p=0.01; for reduction in circulating plasma PAI-1 levels: 16 male patients with history of myocardial infarction, 500 mg (Ergenyl Retard) twice daily during 28 days on top of ordinary prescription", "experimental": "(§2) The effects of VPA on PAI-1 were analysed in two different proof-of-concept studies in healthy subjects as well as in patients with manifest atherosclerotic disease. […] PAI-1 plasma levels were measured in the morning at the first day of the study as well as at the end of the treatment period with VPA (see example 2 for details on the PAI-1 analysis).\nIn the second study, 16 non-smoking white male patients, aged 50-80 years with a history of a myocardial infarction were included. On top of their ordinary prescription (beta-blocker, ACE-inhibitor, statin, aspirin) they were treated with valproic acid 500 mg (Ergenyl Retard, Sanofi), twice daily during 28 days.\nas §1"}, "PAI-1 [7]": {"system": "PAI-1", "assay": "Proof-of-concept cross-over study in healthy subjects: plasma PAI-1 before and after valproic acid", "format": "in vivo, human", "conditions": "500 mg (Ergenyl Retard) twice daily during 14 days, p<0.05", "experimental": "as §2\nIn the first study, 10 healthy non-smoking white male subjects (with mean BMI of approximately 26), aged 50-70 years were included and treated with valproic acid 500 mg (Ergenyl Retard, Sanofi) twice daily during 14 days.\nas §1"}},
  "note": "Read-outs that look alike come from different tables or passages of the source.",
  "data": [
    {"smiles": "CCCC(CCC)C(=O)O", "note": "[valproic acid, 2-propylpentanoic acid]", "values": [
      {"measurement": "effects on plasma PAI-1", "setting": "PAI-1 [1]", "result": "did not detect any effects"},
      {"measurement": "effects on plasma PAI-1", "setting": "PAI-1 [2]", "result": "did not detect any effects"},
      {"measurement": "plasma PAI-1 levels lowered after the treatment", "setting": "PAI-1 [3]", "result": "approximately 30%"},
      {"measurement": "PAI-1 mRNA levels after VPA treatment", "setting": "PAI-1 [4]", "result": "did not show a decrease"},
      {"measurement": "increase in PAI-1 production", "setting": "PAI-1 [4]; slight but significant", "result": 30, "unit": "%"},
      {"measurement": "reduction of risk for recurrent atherothrombotic event", "setting": "[5]; in addition to conventional therapy", "result": "approximately 30%"},
      {"measurement": "annual absolute event rate", "setting": "[5]; estimated approximately 7% without treatment", "result": "approximately 5%"},
      {"measurement": "reduction in circulating plasma PAI-1 levels", "setting": "PAI-1 [6]", "result": 45, "unit": "%"},
      {"measurement": "reduction in circulating plasma PAI-1 levels", "setting": "PAI-1 [6]; listed as VPA", "result": "about 45%"},
      {"measurement": "circulating plasma PAI-1 level after treatment", "setting": "PAI-1 [6]; patients with history of myocardial infarction, 500 mg (Ergenyl Retard) twice daily during 28 days, 19.6 ng/ml before treatment", "result": 11, "unit": "ng/mL"},
      {"measurement": "reduction in circulating plasma PAI-1 levels", "setting": "PAI-1 [7]; 10 healthy male subjects, mid-morning vs before treatment", "result": "more than 50%"},
      {"measurement": "circulating plasma PAI-1 level after treatment", "setting": "PAI-1 [7]; healthy male subjects, mid-morning, 22.2 ng/ml before treatment", "result": 10.8, "unit": "ng/mL"}
    ]}
  ]
}
